EP2457907A1, “Flavagline derivatives as neuroprotective agents” (Université de Strasbourg, priority 2010, dated 2012)

Tests used:
[1] = system: primary cultures of mouse cerebellar neurons; assay: Neuroprotection against cisplatin-induced apoptosis (MTT assay); assay type: cell-based; details: flavagline derivative 1 nM, cisplatin 2.5 µM, 48 hours; numbers only in Figure 3
Procedure: The in vitro neuroprotectant activity against neurotoxicity of an antineoplastic agent was assayed on apoptosis induced by cisplatin (2.5 µM) in primary cultures of mouse cerebellar neurons. Neuronal survival was measured by MTT assay.
Cerebellar granular neurons were dissected from 7-day old mice as described previously (Benosman et al., 2007). Briefly, after enzymatic and mechanical dissociation, cells were plated at a density of 500 cells/mm^2 on 0.1 mg/ml polyornithine-pre-coated culture dishes and were grown at 37 °C in a humidified atmosphere (5% CO2 / 95% air). Plating culture medium contained DMEM (Dulbecco's modified Eagle's medium; Life Technology) supplemented with 10% heat-inactivated horse serum (Life Technology), 100 nM insulin (Life Technology), […] gentamycin (Life Technology) and 25 mM KCl. […]
Mature neurons were cultured in 96-well culture dishes (Costar) and incubated for 48 hours in presence of cisplatine (2.5 µM) and flavagline derivative (1 nM) (which were both added into the medium at the same time). […] Plates were stirred at room temperature to ensure that all crystals were dissolved and read on a Bio-Rad 680 micro-ELISA plate-reader, using a test wavelength of 490 nm and a non-specific wavelength of 650 nm for background absorbency. […]

[2] = system: primary rat mesencephalic neurons; assay: Neuroprotection against MPP+-induced apoptosis (in vitro model of Parkinson's disease), TH immunostaining; assay type: cell-based; details: 3µM MPP+; numbers only in Figure 4
Procedure: The neuroprotectant activity was tested in a cellular model of Parkinson's disease on primary mesencephalic cultures of rat embryos treated by MPP^+ (3µM) (Hoglinger et al. 2003).
Postmitotic dopaminergic neurons from the ventral mesencephalon of embryonic day 15.5 Wistar rat embryos (CERJ, Le Genest St. Isle, France) were dissociated mechanically, plated onto polyethylenimine-precoated 24-well culture plates, grown in N5 medium supplemented with 5 mM glucose, 5% horse serum and 2.5% fetal calf serum, as described previously (Michel et al., 1989). After 3 days, fetal calf serum was reduced to 0.5% to limit astrocyte proliferation. All experiments were initiated at day 5 in N5 medium containing 1 % horse serum and 0.1 % fetal calf serum. For each experiment MPP^+ (Sigma) was diluted to 10 mM in H2O. Cells were fixed with 4% formaldehyde for immunocytochemistry. Dopaminergic neurons were visualized by immunocytochemical detection of tyrosine hydroxylase (TH).

Row | SMILES | protection of neurons against apoptosis induced by cisplatin (neuronal survival) [1] | protection against MPP+-induced neurodegeneration (TH-positive dopaminergic neurons) [2]
1 | COc1cc(OC)c2c(c1)OC1(c3ccc(Br)cc3)C(c3ccccc3)CC(NC=O)C21O (centres unmarked) [FL23, N-(3a-(4-Bromophenyl)-8b-hydroxy-6,8-dimethoxy-3-phenyl-2,3,3a,8b-tetrahydro-1H-cyclopenta[b]benzofuran-1-yl)formamide] | able to prevent or limit neuronal cell apoptosis | able to prevent or limit neuronal cell degeneration
2 | COc1cc(OC)c2c(c1)OC1(c3ccc(Br)cc3)C(c3cccc(F)c3)CC(NC=O)C21O (centres unmarked) [FL32, N-(3a-(4-Bromophenyl)-3-(3-fluorophenyl)-8b-hydroxy-6,8-dimethoxy-2,3,3a,8b-tetrahydro-1H-cyclopenta[b]benzofuran-1-yl)formamide] |  | able to prevent or limit neuronal cell degeneration
3 | COc1cc(OC)c2c(c1)OC1(c3ccc(Br)cc3)C(c3cccc(F)c3)CC(NC(=O)N(C)C)C21O (centres unmarked) [FL37] | able to prevent or limit neuronal cell apoptosis | able to prevent or limit neuronal cell degeneration
